How the values were obtained:
human P2X2/3 receptors = target: T1, human P2X2/3 receptors (Homo sapiens, UniProt P56373+Q9UBL9); assay: Intracellular calcium measurement, antagonist activity at human P2X2/3 receptors (hP2X23 1321N1), Fluo8; assay type: cell-based; conditions: column 4); 1321N1 cells, human P2X2/3, Fluo8, agonist ATP at EC50; read-out: 4) hP2X2/3 IC50 [nM] (1321N1)
T1 construct: expressed in transfected cells; host or cells: human astrocytoma 1321N1 (1312N1 [sic])
T1 sequence (P56373 1-397): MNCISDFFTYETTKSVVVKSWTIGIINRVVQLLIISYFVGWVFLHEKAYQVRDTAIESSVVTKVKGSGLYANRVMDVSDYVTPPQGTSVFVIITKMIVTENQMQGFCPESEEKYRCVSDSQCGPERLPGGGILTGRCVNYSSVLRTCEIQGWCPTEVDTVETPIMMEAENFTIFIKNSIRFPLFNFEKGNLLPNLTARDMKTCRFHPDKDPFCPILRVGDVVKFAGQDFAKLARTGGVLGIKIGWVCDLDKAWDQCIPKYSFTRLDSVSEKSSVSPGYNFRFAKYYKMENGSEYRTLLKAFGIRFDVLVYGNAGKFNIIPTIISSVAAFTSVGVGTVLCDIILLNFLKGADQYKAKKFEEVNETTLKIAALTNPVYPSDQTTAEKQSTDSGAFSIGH
T1 sequence (Q9UBL9 1-471): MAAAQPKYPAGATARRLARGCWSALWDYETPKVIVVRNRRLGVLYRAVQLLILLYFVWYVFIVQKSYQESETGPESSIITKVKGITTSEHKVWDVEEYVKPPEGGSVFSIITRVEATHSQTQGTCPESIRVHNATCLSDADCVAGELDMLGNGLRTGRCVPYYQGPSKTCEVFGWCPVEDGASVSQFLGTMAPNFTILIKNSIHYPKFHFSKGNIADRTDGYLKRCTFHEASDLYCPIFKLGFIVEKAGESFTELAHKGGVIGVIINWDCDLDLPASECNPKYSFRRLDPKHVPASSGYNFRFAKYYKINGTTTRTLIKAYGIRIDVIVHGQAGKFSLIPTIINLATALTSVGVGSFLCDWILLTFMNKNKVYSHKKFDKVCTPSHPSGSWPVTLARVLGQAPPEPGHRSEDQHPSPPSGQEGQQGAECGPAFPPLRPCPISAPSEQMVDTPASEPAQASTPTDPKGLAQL
Protocol: 3) And 4) Intracellular Calcium Measurement to Compare Antagonist Activity at Human P2X3 Receptors (hP2X3 1321N1) and at Human P2X2/3 Receptors (hP2X23 1321N1)
The comparison of antagonistic activity at the P2X3 versus the P2X2/3 receptor of the compounds of the invention were performed by use of recombinant cell lines. These cell lines derived originally from the human astrocytoma cell line […] (Macintyre E H, Pontén J, Vatter A E. Acta Pathol Microbiol Scand A. 1972; 80(2):267-83). The cell lines are stably transfected with the human P2X3 receptor forming homotrimeric P2X3 receptors or are co-transfected with P2X2 and P2X3 forming heterotrimeric P2X2/3 receptors. Stimulation of the receptors with the agonist ATP leads to a conformational change of the receptors and influx of extracellular calcium ions through the open ion channel. The cytoplasmatic calcium transient is detected via the calcium sensitive dye Fluo8. The strength of Fluo8 fluorescence signal corresponds to the level of receptor activation. An inhibitor would decrease the signal depending on its potency and concentration. Fluorescence was measured by use of a suitable fluorescence reader.
On the day before the assay, the cells were plated in culture medium (DMEM high glucose, 10% FCS, 1% MEM non-essential amino acids, 4 mM Glutamax) in 384-well poly-D-lysine coated microtiter plates and kept in a cell incubator (96% humidity, 5% v/v CO2, 37° C.). On the day of the assay medium was exchanged by Fluo8 containing buffer and incubated for 60 minutes. Test compounds were added at various concentrations and plates were incubated for 10 minutes. In the fluorescence reader a 3 seconds baseline measurement was performed and the agonist ATP was applied at EC50 concentration of the respective receptor during constant fluorescence measurement for 120 seconds.

human P2X3 receptor = target: T2, human P2X3 receptor (Homo sapiens, UniProt P56373); assay: Intracellular calcium measurement to assess antagonist activity at human P2X3 receptors (hP2X3 CHO), photina luminescence; assay type: cell-based; set-up: expressed in transfected cells; host or cells: Chinese hamster ovary (CHO) cells; conditions: column 2), CHO cells, agonist α,β-methylene-ATP at EC50
T2 sequence (P56373 1-397): T1 sequence (P56373 1-397)
Protocol: 2) Intracellular Calcium Measurement to Assess Antagonist Activity at Human P2X3 Receptors (hP2X3 CHO)
The determination of antagonistic activity at the P2X3 receptor of the compounds of the invention was performed by use of a recombinant cell line. This cell line derives originally from the Chinese hamster ovary (CHO) cell line (Tjio J. H.; Puck T. T., 1958, J. Exp. Med. 108: 259-271). The cell line is stably transfected with the human P2X3 receptor and a calcium-sensitive photoprotein, mitochondrial photina, which, after reconstitution with the cofactor coelenterazine, emits light in dependence of calcium binding [Bovolenta S, Foti M, Lohmer S, Corazza S., J Biomol Screen. 2007 August; 12(5):694-704]. The strength of the photina luminescence signal corresponds to the level of receptor activation upon agonist binding. An inhibitor would decrease the signal depending on its potency and concentration. Bioluminescence was detected using a suitable luminometer [Milligan G, Marshall F, Rees S, Trends in Pharmacological Sciences 17,235-237 (1996)].
On the day before the assay, the cells were plated out in culture medium (DMEM/F12 (PAN, P04-41451), 10% FCS) in 384-well microtiter plates and kept in a cell incubator (96% humidity, 5% v/v CO2, […]). On the day of the assay medium was replaced by 2 mM Ca-tyrode buffer containing 5 μg/ml coelenterazine. Plates were incubated for 3 hours at 37° C. (96% humidity, 5% v/v CO2). […] The resulting light signal was measured immediately in the luminometer.

COC[C@H](C)N1Cc2c(n(CC(=O)Nc3ccc(F)cn3)c3cc(-c4ccc(C)cn4)nn3c2=O)C1=O [Example 162] gave an IC50 (human P2X2/3 receptors) of 1200 nM and an IC50 (human P2X3 receptor) of 6 nM.

CCc1cc2n(CC(=O)Nc3ccc(F)cn3)c3c(c(=O)n2n1)CN(C(C)COCc1ccccc1)C3=O (racemic) [Example 121, 2-{6-[(±)-1-(benzyloxy)propan-2-yl]-2-ethyl-5,8-dioxo-5,6,7,8-tetrahydro-4H-pyrazolo[1,5-a]pyrrolo[3,4-d]pyrimidin-4-yl}-N-(5-fluoropyridin-2-yl)acetamide] gave an IC50 (human P2X2/3 receptors) of 1160 nM and an IC50 (human P2X3 receptor) of 51 nM.

In the case of COC[C@H](C)N1Cc2c(n(CC(=O)Nc3ccc(F)cn3)c3cc(-c4ncccc4C)nn3c2=O)C1=O [Example 164], the IC50 (human P2X2/3 receptors) is reported as 3700 nM and the IC50 (human P2X3 receptor) is reported as 20 nM.

For COC[C@H](C)N1Cc2c(n(CC(=O)Nc3ccc(F)cn3)c3cc(C(=O)Nc4cccnn4)nn3c2=O)C1=O [Example 216], the IC50 (human P2X2/3 receptors) was 5600 nM and the IC50 (human P2X3 receptor) was 20 nM.

CCc1cc2n(CC(=O)Nc3ccc(F)cn3)c3c(c(=O)n2n1)CN(Cc1ccc(C)nc1)C3=O [Example 117] was tested, and the IC50 (human P2X2/3 receptors) was 6150 nM and the IC50 (human P2X3 receptor) was 27 nM.

With CC(C)N1Cc2c(n(CC(=O)Nc3ccc(F)cn3)c3cc(C(=O)Nc4ccccn4)nn3c2=O)C1=O [Example 201] the IC50 (human P2X2/3 receptors) was 3870 nM and the IC50 (human P2X3 receptor) was 37 nM.

CC(C)N1Cc2c(n(CC(=O)Nc3ccc(F)cn3)c3cc(C(=O)Nc4c(F)cccc4F)nn3c2=O)C1=O [Example 205] was tested, and the IC50 (human P2X2/3 receptors) was 5000 nM and the IC50 (human P2X3 receptor) was 17 nM.

With CC(C)N1Cc2c(n(CC(=O)Nc3ccc(F)cn3)c3cc(C(=O)Nc4cccnc4)nn3c2=O)C1=O [Example 207] the IC50 (human P2X2/3 receptors) was 2680 nM and the IC50 (human P2X3 receptor) was 17 nM.

Work on O=C(Cn1c2c(c(=O)n3nc(C(=O)Nc4ccccc4F)cc13)CN(Cc1ccccn1)C2=O)Nc1ccc(F)cn1 [Example 222] yielded an IC50 (human P2X2/3 receptors) of 1350 nM and an IC50 (human P2X3 receptor) of 15 nM.

Compound CCc1cc2n(CC(=O)Nc3ccc(F)cn3)c3c(c(=O)n2n1)CN(C(C)(C)COCc1ccccc1)C3=O [Example 120, 2-{6-[1-(benzyloxy)-2-methylpropan-2-yl]-2-ethyl-5,8-dioxo-5,6,7,8-tetrahydro-4H-pyrazolo[1,5-a]pyrrolo[3,4-d]pyrimidin-4-yl}-N-(5-fluoropyridin-2-yl)acetamide] has an IC50 (human P2X2/3 receptors) of 345 nM and an IC50 (human P2X3 receptor) of 5 nM.

COC[C@H](C)N1Cc2c(n(CC(=O)Nc3ccc(F)cn3)c3cc(C(=O)N(C)Cc4cccnc4)nn3c2=O)C1=O [Example 218] showed an IC50 (human P2X2/3 receptors) of 11500 nM and an IC50 (human P2X3 receptor) of 15 nM.

In the case of COC[C@H](C)N1Cc2c(n(CC(=O)Nc3ccc(F)cn3)c3cc(C(=O)N(C)c4ccccn4)nn3c2=O)C1=O [Example 214], the IC50 (human P2X2/3 receptors) is reported as 6450 nM and the IC50 (human P2X3 receptor) is reported as 22 nM.

In the case of CC(C)N1Cc2c(n(CC(=O)Nc3ccc(F)cn3)c3cc(C4CCC(=O)N4C)nn3c2=O)C1=O (racemic) [Example 231, N-(5-fluoropyridin-2-yl)-2-{2-[(±)-1-methyl-5-oxopyrrolidin-2-yl]-5,8-dioxo-6-(propan-2-yl)-5,6,7,8-tetrahydro-4H-pyrazolo[1,5-a]pyrrolo[3,4-d]pyrimidin-4-yl}acetamide], the IC50 (human P2X2/3 receptors) is reported as greater than 23500 nM and the IC50 (human P2X3 receptor) is reported as 95 nM.

CCOC(=O)c1cc2n(CC(=O)Nc3ccc(F)cn3)c3c(c(=O)n2n1)CN(CCN1CCOCC1)C3=O [Example 123] gave an IC50 (human P2X3 receptor) of 21 nM.

For Cc1cc2n(CC(=O)Nc3ccc(F)cn3)c3c(c(=O)n2n1)CN(CC1CCO1)C3=O (stereo not drawn) [Example 125], the IC50 (human P2X3 receptor) was 240 nM.

Compound O=C(Cn1c2c(c(=O)n3nc(C(F)(F)F)cc13)CN(CCN1CCOCC1)C2=O)Nc1ccc(F)cn1 [Example 103] has an IC50 (human P2X3 receptor) of 143 nM.

COC[C@H](C)N1Cc2c(n(CC(=O)Nc3ccc(F)cn3)c3cc(C(=O)Nc4ncccn4)nn3c2=O)C1=O [Example 217] gave an IC50 (human P2X3 receptor) of 70 nM.

O=C(Cn1c2c(c(=O)n3nc(-c4ccncc4)cc13)CN(CCN1CCOCC1)C2=O)Nc1ccc(F)cn1 [Example 132] gave an IC50 (human P2X3 receptor) of 18 nM.

In the case of CCc1cc2n(CC(=O)Nc3ccc(F)cn3)c3c(c(=O)n2n1)CN(C1CCS(=O)(=O)CC1)C3=O [Example 119], the IC50 (human P2X3 receptor) is reported as 470 nM.

CC(C)N1Cc2c(n(CC(=O)Nc3ccc(F)cn3)c3cc(C(=O)O)nn3c2=O)C1=O [Example 84, 4-{2-[(5-Fluoropyridin-2-yl)amino]-2-oxoethyl}-5,8-dioxo-6-(propan-2-yl)-5,6,7,8-tetrahydro-4H-pyrazolo[1,5-a]pyrrolo[3,4-d]pyrimidine-2-carboxylic acid] showed an IC50 (human P2X3 receptor) of 1400 nM.

CCOC(=O)c1cc2n(CC(=O)Nc3ccc(F)cn3)c3c(c(=O)n2n1)CN(Cc1ccccn1)C3=O [Example 124] gave an IC50 (human P2X3 receptor) of 10 nM.

With CC(C)N1Cc2c(n(CC(=O)Nc3ccc(F)cn3)c3cc([C@H]4CCOC4)nn3c2=O)C1=O (single isomer, unassigned) [Example 281, 2-{5,8-dioxo-2-[oxolan-3-yl]-6-(propan-2-yl)-5,6,7,8-tetrahydro-4H-pyrazolo[1,5-a]pyrrolo[3,4-d]pyrimidin-4-yl}-N-(5-fluoropyridin-2-yl)acetamide] the IC50 (human P2X3 receptor) was 42 nM.

Work on O=C(Cn1c2c(c(=O)n3nc(-c4ccncc4)cc13)CN(Cc1ccc(F)cc1)C2=O)Nc1ccc(F)cn1 [Example 129] yielded an IC50 (human P2X3 receptor) of 53 nM.

CCc1cc2n(CC(=O)Nc3ccc(F)cn3)c3c(c(=O)n2n1)CN(C1CN(C(C)=O)C1)C3=O [Example 269] gave an IC50 (human P2X3 receptor) of 1500 nM.

CC(C)N1Cc2c(n(CC(=O)Nc3ccc(F)cn3)c3cc(C4=CCS(=O)(=O)CC4)nn3c2=O)C1=O [Example 145, 2-[2-(1,1-dioxo-1,2,3,6-tetrahydro-1lambda^6-thiopyran-4-yl)-5,8-dioxo-6-(propan-2-yl)-5,6,7,8-tetrahydro-4H-pyrazolo[1,5-a]pyrrolo[3,4-d]pyrimidin-4-yl]-N-(5-fluoropyridin-2-yl)acetamide] showed an IC50 (human P2X3 receptor) of 33 nM.

For CC(C)N1Cc2c(n(CC(=O)Nc3ccc(F)cn3)c3cc(C4=COCC4)nn3c2=O)C1=O [Example 144, 2-[2-(4,5-dihydrofuran-3-yl)-5,8-dioxo-6-(propan-2-yl)-5,6,7,8-tetrahydro-4H-pyrazolo[1,5-a]pyrrolo[3,4-d]pyrimidin-4-yl]-N-(5-fluoropyridin-2-yl)acetamide], the IC50 (human P2X3 receptor) was 36 nM.

CC(C)N1Cc2c(n(CC(=O)Nc3ccc(F)cn3)c3cc(C(=O)Nc4ccc(Cl)cn4)nn3c2=O)C1=O [Example 213] showed an IC50 (human P2X3 receptor) of 93 nM.

CC(C)N1Cc2c(n(CC(=O)Nc3ccc(F)cn3)c3cc(C(=O)Nc4ccc(F)cc4)nn3c2=O)C1=O [Example 208] gave an IC50 (human P2X3 receptor) of 28 nM.

O=C(Cn1c2c(c(=O)n3nc(C(=O)Nc4ccccc4F)cc13)CN(CCN1CCOCC1)C2=O)Nc1ccc(F)cn1 [Example 220] gave an IC50 (human P2X3 receptor) of 45 nM.

From patent US11319324B2, “Pyrazolo-pyrrolo-pyrimidine-dione derivatives as P2X3 inhibitors” (Bayer Aktiengesellschaft, priority 2017, dated 2022)
